In one experiment the target is T1, pancreatic lipase (Homo sapiens, UniProt P16233).
T1 sequence (P16233 17-465): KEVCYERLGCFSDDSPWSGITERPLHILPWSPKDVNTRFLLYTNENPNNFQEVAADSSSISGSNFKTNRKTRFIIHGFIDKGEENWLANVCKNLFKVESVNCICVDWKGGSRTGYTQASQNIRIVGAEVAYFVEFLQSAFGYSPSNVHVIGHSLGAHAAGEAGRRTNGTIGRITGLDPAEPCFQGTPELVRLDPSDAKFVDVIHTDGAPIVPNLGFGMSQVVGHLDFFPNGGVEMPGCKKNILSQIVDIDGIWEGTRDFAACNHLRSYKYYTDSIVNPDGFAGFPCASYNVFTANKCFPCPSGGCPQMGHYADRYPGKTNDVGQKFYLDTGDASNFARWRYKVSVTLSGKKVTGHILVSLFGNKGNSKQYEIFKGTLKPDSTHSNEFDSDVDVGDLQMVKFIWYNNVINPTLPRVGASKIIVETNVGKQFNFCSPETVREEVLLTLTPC
The experiment is described as follows: Lipase inhibition by β-lactones in microtiter well plates. To be noted: FIGS. 13A-E. The format is biochemical. The procedure: Cis and trans-isomers of β-lactones were synthesized and tested separately. […] These reactions were conducted in microtiter well plates so the inhibition of the lipase can be measured in a high-throughput manner such that hundreds or thousands of β-lactones can be rapidly screened. In addition, fatty acyl-CoA substrates can be combined with OleADC and lipase and lipase inhibition can be detected. Moreover, lipase may be substituted with proteasomes, penicillin binding proteins, pathogenic bacteria, or cancer cells and inhibitory activity of one or a plurality of β-lactones detected.

Another experiment addresses Xc OleB (Xanthomonas campestris pv. campestris, UniProt Q8PDW8). Put plainly: OleB reactions with haloalkanes (GC-FID/MS). The format is biochemical. As to conditions: monitored by GC-FID/MS. The procedure: The following haloalkane substrates were dissolved in ethanol to a concentration of 5 mM for testing with Xc OleB: 1-iodobutane, 1,3-diiodobutane,1-chlorobutane, 1-bramopentane, 1-chlorohexane, 1-bromooctane, 1-iodoundecane, and 7-(bromomethyl)pentadecane. Reactions were carried out in glass GC vials contained purified OleB (40 μg) and 10 μL of substrate in 500 μL, of 200 mM NaCl, 20 mM NaPO4 at pH 7.4. Reactions were incubated at room temperature overnight, followed by extraction with tert-butyl methylether (MTBE). The MTBE extract was transferred to a clean GC vial and analyzed by gas chromatography/mass spectrometry (GC/MS Agilent 7890a & 5975c with an Agilent J&W bd-ms1 column 30 m length, 0.25 mm diameter, 0.25 μm film).

The target in experiment [1] is ClpP protease of Mycobacterium tuberculosis (Mycobacterium tuberculosis, UniProt P9WPC3+P9WPC5). As to conditions: cited from earlier work.
Another experiment has as its target X. campestris OleB (Xanthomonas campestris pv. campestris, UniProt Q8PDW8). Put plainly: OleB reactions with β-lactone followed by 1H-NMR. To be noted: for β-lactone that underwent decarboxylation to cis-olefin: 1.0 mg OleB, overnight, room temperature, 1H-NMR. The experiment is classed as biochemical.
The target in the next experiment is human pancreatic lipase (Homo sapiens, UniProt P16233). To be noted: cited from earlier work.
A further experiment deals with OleB (Xanthomonas campestris pv. campestris, UniProt Q8PDW8). The experiment is described as follows: MALDI-TOF of acyl-enzyme intermediate with haloalkane. The experiment is classed as binding. As to conditions: wild type OleB. How it is done:
To identify an acyl-enzyme intermediate, Matrix Assisted Laser Desorption Ionization (MALDI) was carried out on wild type OleB and OleBD114A proteins that had been reacted with 7-(bromornethyl)pentadecane (TCI). These two substrates contain the reactive bromomethyl group in the middle of a long alkyl chain, thereby mimicking the β-lactone substrate of OleB. Reactions contained 500 μM substrate and 40 μg of OleB in 100 μL of buffer (20 mM NaCl, 5 mM NaPO4, pH 7.4). Reaction were prepared for MALDI using standard C4 ZipTip (Millipore) procedures and spotted on a plate with sinapinic acid. Samples were analyzed on a Bruker Autoflex Speed MALDI-TOF.

Another experiment has as its target human 20S protease (Homo sapiens, UniProt P28072+P28074+Q99436). As to conditions: cited from earlier work.

Sequence of X. campestris OleB (Q8PDW8 whole entry): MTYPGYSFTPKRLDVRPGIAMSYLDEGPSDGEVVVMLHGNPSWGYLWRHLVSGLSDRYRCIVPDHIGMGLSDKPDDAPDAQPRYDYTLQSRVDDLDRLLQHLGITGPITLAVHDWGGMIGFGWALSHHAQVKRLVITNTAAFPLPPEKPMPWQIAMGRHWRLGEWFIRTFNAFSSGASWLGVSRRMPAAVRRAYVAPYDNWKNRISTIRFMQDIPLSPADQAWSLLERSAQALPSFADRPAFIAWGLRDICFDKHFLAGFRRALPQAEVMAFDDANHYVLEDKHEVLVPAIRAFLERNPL
Sequence of Xc OleB (Q8PDW8 whole entry): as above
Sequence of OleB (Q8PDW8 whole entry): as above
Sequence of ClpP protease of Mycobacterium tuberculosis (P9WPC5 whole entry): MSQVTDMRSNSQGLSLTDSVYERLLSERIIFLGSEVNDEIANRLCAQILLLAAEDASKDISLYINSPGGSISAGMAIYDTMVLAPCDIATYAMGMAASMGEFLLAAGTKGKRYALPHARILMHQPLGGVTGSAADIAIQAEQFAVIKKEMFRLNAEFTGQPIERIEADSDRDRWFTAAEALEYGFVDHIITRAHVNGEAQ
Sequence of ClpP protease of Mycobacterium tuberculosis (P9WPC3 whole entry): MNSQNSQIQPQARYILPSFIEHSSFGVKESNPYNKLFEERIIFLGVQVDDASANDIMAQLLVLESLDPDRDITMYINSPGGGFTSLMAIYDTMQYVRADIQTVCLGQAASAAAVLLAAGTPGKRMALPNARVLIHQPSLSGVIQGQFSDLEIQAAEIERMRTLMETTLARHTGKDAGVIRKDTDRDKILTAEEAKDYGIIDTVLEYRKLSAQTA

For `CCCCCCCCCCC[C@@H](C[C@@H]1OC(=O)[C@H]1CCCCCC)OC(=O)[C@H](CC(C)C)NC=O` [Orlistat, tetrahydrolipstatin], the lipase inhibitory activity entry at pancreatic lipase is given as “inhibits pancreatic lipase at nanogram levels”.

Regarding `CCCCCl` [1-chlorobutane], the “dehalogenase activity towards haloalkane substrate” value on Xc OleB was “No detectable activity”.

On to `CCCC1OC(=O)C1Cc1ccccc1` (stereo not shown) [3-benzyl, 4-propyl oxetanone], for which the “inhibition of ClpP protease” value in experiment [1] is reported as “inhibit the ClpP protease of Mycobacterium tuberculosis”.

On to `CCCCCCCCCC1OC(=O)C1CCCCCCCC` (stereo not drawn) [cis-β-lactone, 3-octyl-4-nonyl-2-oxetanone], for which, at X. campestris OleB, the “β-lactone that underwent decarboxylation to cis-olefin” value is 47%. Moreover, the “cis-β-lactone starting material converted to cis-olefin” value came to 54% at X. campestris OleB (2 mg of OleB) and 63% at X. campestris OleB (4 mg of OleB).

Take `CCCCBr` [1-bromobutane]: the “dehalogenase activity towards haloalkane substrate” value at Xc OleB is “No detectable activity”.

With `CCCCI` [1-iodobutane], the “dehalogenase activity towards haloalkane substrate” value at Xc OleB was “No detectable activity”.

For the molecule `CCCCCCCCCC1OC(=O)C1CCCCCCCC` (stereo not drawn) [trans-β-lactone, 3-octyl-4-nonyl-2-oxetanone], the “β-lactone that underwent decarboxylation to cis-olefin” value on X. campestris OleB stood at 4%.

For the molecule `CCCCCCCl` [1-cholohexane], the “dehalogenase activity towards haloalkane substrate” value at Xc OleB was “No detectable activity”.

As to `CCCCCCCCCCCI` [1-iodoundecane], the “dehalogenase activity towards haloalkane substrate” value on Xc OleB was “No detectable activity”.

`CCCCC/C=C\C/C=C\C[C@@H](C[C@@H]1OC(=O)[C@H]1CCCCCC)OC(=O)[C@H](CC(C)C)NC=O` [lipstatin]: at human pancreatic lipase, the “inhibition of human pancreatic lipase” value is reported as “inhibiting human pancreatic lipase”.

For the molecule `CCCCCCBr` [1-bromohexane], on Xc OleB, the “dehalogenase activity towards haloalkane substrate” value was “No detectable activity”.

On to `CCCCCCCCC(CBr)CCCCCC` (stereo not shown) [7-(bromomethyl)pentadecane], for which the “acyl-enzyme intermediate formation (mass shift)” value on OleB is “forms a stable acyl-enzyme intermediate”. Also, the “dehalogenase activity towards haloalkane substrate” value at Xc OleB was “No detectable activity”.

As for salinosporamide, the “inhibition of human 20S protease function” value at human 20S protease is on record as “inhibit human 20S protease function”.

Values taken from US20200048668A1, “BIOLOGICAL PRODUCTION OF ß-LACTONES” (Regents of the University of Minnesota, priority 2018, published 2020).
